The subject of one test is EphB receptors. Briefly: Peptide pull-down of endogenous EphB receptors from lysates. The format is binding. The conditions noted are these: peptide on streptavidin beads; mouse brain or cultured cell lysates. Here is the method:
The ability of the peptides to bind in a stable manner, which is important for both targeting and competitive inhibition, was tested in pull-down experiments. For peptide pull-down experiments, cells in 60 cm plates at 70% confluency or adult mouse brain tissue were solubilized in pull-down buffer (50 mM HEPES pH 7.5, 150 mM NaCl, 10% glycerol, 1% Triton-X100, 5 mM KCl and 1 mM EDTA). Three μg of biotinylated peptide were incubated for 45-90 min with 5 μl streptavidin agarose beads (Sigma), unbound peptide was washed away, and the beads were incubated with the cell lysates for 45-90 min. Proteins bound to the beads were separated by SDS-polyacrylamide gel electrophoresis and probed by immunoblotting with EphB1, EphB2, or EphB4 antibodies. The EphB1 antibody (Santa Cruz) was detected with a secondary anti-goat IgG peroxidase-conjugated antibody (BioRad Laboratories). The EphB2 and EphB4 antibodies were affinity-purified polyclonal antibodies to GST fusion proteins containing approximately 100 amino acids from the carboxy-terminal tails of the EphB2 or EphB4 receptors (Noren, N. K. et al. 2004 PNAS USA 101:5583-5588; Holash, J. A. & Pasquale, E. B. 1995 Devel Biol 172:683-693) and were detected with a secondary anti-rabbit IgG peroxidase-conjugated antibody (Amersham Biosciences). […]

In a further test the target is T1, EphB1 (Homo sapiens, UniProt P54762).
T1 construct: panned on the ectodomains of EphB1, EphB2, or EphB4 fused to human Fc
T1 sequence (P54762 18-540 limits assumed): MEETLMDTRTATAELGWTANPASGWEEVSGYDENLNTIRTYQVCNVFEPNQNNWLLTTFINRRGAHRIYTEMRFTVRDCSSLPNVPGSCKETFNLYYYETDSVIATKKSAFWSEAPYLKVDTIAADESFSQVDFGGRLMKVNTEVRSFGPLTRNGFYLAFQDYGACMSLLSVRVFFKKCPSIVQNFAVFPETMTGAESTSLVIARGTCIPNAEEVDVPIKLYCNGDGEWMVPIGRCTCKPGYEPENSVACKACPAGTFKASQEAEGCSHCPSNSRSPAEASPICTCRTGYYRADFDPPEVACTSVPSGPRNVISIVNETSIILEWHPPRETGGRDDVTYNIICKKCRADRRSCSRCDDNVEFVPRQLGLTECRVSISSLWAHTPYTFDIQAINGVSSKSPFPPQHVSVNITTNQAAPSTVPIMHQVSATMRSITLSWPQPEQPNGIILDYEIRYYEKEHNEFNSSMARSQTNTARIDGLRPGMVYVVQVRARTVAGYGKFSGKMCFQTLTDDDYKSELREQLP
Kind of test: Peptide competition of phage binding to EphB1 ectodomain. The method, then:
To measure peptide competition of phage binding to EphB receptors, Ni-NTA wells coated with Eph ectodomain Fc were incubated for 30 min at room temperature with various peptide concentrations in binding buffer (100 μl/well). Concentrated stocks of phage clones diluted between 1:500 and 1:10,000 in binding buffer were then added to the wells for a 1 hr at room temperature. Wells were washed and bound phage were detected using the anti-M13 antibody. A biotinylated control peptide with sequence unrelated to the sequences of the Eph-binding peptides ([…], SEQ ID NO: 40) was used as a negative control in some of the experiments, as indicated in the figure legends.
[…]. The SNEW peptide at 25 μM inhibited EphB2 binding of most phage clones isolated by panning on EphB2 (FIGS. 2E and G). The only exceptions were the IHWP, DHRWV and WHWT clones. However, binding of these clones was inhibited by 50 μM SNEW peptide, particularly when the phage concentration was halved. […] Bound phage were detected using anti-M13 phage antibody coupled to HRP and phage binding in the presence of peptide was normalized to phage binding in the absence of peptide. Error bars indicate standard deviation from duplicate measurements, and were calculated taking into account propagation of errors.

No end group written: not given here.

The results in this text go back to US7999069B2, “EphB receptor-binding peptides” (Sanford-Burnham Medical Research Institute, priority 2005, dated 2011).

Turning to EWLSPNLAPSVR [SEQ ID NO 1], in the test with EphB receptors, the “Stable binding of EphB receptors in pull-down” value is listed as “stably bind EphB receptors”. In addition, the “Inhibition of EphB1 binding of phage clones isolated by panning on EphB1” value on EphB1 (5 μM peptide) is “inhibited EphB1 binding of the phage clones isolated by panning on EphB1”. The “Inhibition of binding of the corresponding phage clone to EphB1” value at EphB1 (concentration-dependent) was “efficiently inhibited binding”.
